# ChEMBL document CHEMBL1140170, “The importance of micelle-bound states for the bioactivities of bifunctional peptide derivatives for delta/mu opioid receptor agonists and neurokinin 1 receptor antagonists” (J Med Chem, 2008)
# Experiments:
# [1] = biological target: Mu-type opioid receptor (Rattus norvegicus) (UniProt P33535)
# [2] = biological target: Substance-P receptor (Cavia porcellus) (UniProt P30547); settings: Hartley, Ileum
# Chain of Substance-P receptor (Cavia porcellus) (P30547 whole entry): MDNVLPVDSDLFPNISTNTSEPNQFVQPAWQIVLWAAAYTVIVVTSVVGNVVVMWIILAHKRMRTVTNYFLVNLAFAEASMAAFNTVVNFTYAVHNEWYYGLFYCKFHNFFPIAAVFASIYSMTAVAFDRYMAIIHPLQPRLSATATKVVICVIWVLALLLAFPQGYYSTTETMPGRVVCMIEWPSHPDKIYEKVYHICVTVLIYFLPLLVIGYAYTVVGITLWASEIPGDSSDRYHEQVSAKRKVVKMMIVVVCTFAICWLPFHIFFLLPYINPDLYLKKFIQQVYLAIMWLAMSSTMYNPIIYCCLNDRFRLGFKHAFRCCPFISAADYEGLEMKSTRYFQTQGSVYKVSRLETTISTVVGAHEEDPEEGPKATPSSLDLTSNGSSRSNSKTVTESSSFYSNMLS
# Chain of Mu-type opioid receptor (Rattus norvegicus) (P33535 whole entry): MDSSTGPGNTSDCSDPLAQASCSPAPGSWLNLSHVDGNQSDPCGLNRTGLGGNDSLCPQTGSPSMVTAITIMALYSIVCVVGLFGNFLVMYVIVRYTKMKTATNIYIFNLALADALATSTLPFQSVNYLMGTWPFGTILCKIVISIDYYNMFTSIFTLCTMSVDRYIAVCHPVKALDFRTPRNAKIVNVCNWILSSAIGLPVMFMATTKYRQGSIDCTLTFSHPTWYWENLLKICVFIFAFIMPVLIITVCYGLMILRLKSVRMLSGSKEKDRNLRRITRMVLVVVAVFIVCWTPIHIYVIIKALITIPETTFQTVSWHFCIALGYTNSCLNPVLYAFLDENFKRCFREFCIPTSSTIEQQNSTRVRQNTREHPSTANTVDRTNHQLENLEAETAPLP
Compound,pEC50 [1],Ke [2]
CSCC[C@H](NC(=O)[C@H](Cc1ccccc1)NC(=O)CNC(=O)[C@@H](C)NC(=O)[C@@H](N)Cc1ccc(O)cc1)C(=O)N1CCC[C@H]1C(=O)N[C@@H](CC(C)C)C(=O)N[C@@H](Cc1c[nH]c2ccccc12)C(=O)OCc1cc(C(F)(F)F)cc(C(F)(F)F)c1,7.5 nM,
CSCC[C@H](NC(=O)[C@H](Cc1ccccc1)NC(=O)CNC(=O)[C@@H](C)NC(=O)[C@@H](N)Cc1ccc(O)cc1)C(=O)N1CCC[C@H]1C(=O)N[C@@H](CC(C)C)C(=O)N[C@@H](Cc1c[nH]c2ccccc12)C(=O)NCc1ccccc1,7.7 nM,9.9 nM
CSCC[C@H](NC(=O)[C@H](Cc1ccccc1)NC(=O)CNC(=O)[C@@H](C)NC(=O)[C@@H](N)Cc1ccc(O)cc1)C(=O)N1CCC[C@H]1C(=O)N[C@@H](CC(C)C)C(=O)N[C@@H](Cc1c[nH]c2ccccc12)C(=O)NCc1cc(C(F)(F)F)cc(C(F)(F)F)c1,8.2 nM,10 nM
